Test results from US8030487B2, “2-amino—5-substituted pyrimidine inhibitors” (TargeGen, Inc., priority 2006, dated 2011).

target: T1, VEGFR2 (Homo sapiens, UniProt P35968); experiment: VEGFR2 kinase inhibition (residual ATP luminescence); assay type: biochemical; conditions: 1.5 uM ATP, 60 min 37° C.
T1 construct: purchased Cell Signaling/ProQinase
Method: (§1) The ability of compounds of the present invention to inhibit the activity of various groups of kinases was tested. Kinases that were tested are described below. All kinase reactions were conducted in 96-well plates with a final reaction volume of 50 μl.
EGFR and VEGFR2 kinase assays were similarly performed. EGFR (76 ng/well, Panvera/Invitrogen) was combined with 12.5 mg/ml poly(glu4tyr) (Sigma) and 2.5 uM ATP. VEGFR2 (14.1 U/well, Cell Signaling/ProQinase) was used with 0.3 mg/ml poly(glu4tyr) and 1.5 uM ATP. Both were incubated for 60 minutes at 37° C., and the residual ATP was measured via luminescence, per the procedure described above.

T1 sequence (P35968 20-1356, species assumed): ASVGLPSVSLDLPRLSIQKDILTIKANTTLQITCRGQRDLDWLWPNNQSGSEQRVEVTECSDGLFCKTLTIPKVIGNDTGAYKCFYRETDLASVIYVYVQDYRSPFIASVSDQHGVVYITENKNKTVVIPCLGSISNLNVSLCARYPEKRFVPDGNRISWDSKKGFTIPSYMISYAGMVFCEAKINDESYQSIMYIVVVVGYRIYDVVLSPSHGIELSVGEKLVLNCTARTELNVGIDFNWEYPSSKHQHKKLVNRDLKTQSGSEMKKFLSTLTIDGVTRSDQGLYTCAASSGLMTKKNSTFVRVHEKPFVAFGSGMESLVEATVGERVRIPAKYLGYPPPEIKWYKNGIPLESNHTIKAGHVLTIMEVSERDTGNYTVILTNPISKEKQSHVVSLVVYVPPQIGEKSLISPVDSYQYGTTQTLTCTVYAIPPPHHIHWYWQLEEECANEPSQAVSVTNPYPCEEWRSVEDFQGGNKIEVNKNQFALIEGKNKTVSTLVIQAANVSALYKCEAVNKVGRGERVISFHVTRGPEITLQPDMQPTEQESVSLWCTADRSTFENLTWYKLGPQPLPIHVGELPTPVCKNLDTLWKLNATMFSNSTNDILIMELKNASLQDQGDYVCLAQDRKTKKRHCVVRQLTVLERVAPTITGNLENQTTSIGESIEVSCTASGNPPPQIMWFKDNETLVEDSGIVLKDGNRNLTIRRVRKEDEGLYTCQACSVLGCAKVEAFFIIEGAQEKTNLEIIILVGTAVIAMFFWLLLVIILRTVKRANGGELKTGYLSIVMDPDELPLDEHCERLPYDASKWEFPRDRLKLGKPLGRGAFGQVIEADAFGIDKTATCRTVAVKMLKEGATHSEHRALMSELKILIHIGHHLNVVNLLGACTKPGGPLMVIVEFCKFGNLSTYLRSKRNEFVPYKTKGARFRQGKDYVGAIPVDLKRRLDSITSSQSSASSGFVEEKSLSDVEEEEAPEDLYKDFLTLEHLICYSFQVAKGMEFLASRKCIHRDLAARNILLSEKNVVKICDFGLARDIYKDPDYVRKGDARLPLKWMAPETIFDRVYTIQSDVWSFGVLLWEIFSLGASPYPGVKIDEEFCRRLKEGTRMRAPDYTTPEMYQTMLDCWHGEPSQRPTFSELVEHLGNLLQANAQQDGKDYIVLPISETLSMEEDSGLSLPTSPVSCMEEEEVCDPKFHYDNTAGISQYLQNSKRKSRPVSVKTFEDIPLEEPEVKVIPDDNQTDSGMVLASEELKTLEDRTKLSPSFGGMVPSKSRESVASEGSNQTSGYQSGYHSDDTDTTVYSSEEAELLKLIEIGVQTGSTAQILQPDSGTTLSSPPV

| Structure (SMILES) | IC50 |
| --- | --- |
| O=C(Nc1ccc(Cl)c(C(=O)Nc2cnc(Nc3ccc(C(=O)N4CCN(CCO)CC4)nc3)nc2)c1)c1cccc(C(F)(F)F)c1 | 3.1 nM |
| Cc1ccc(NC(=O)c2cccc(C(F)(F)F)c2)cc1C(=O)Nc1cnc(Nc2ccc(S(=O)(=O)CCCN3CCCC3)cc2)nc1 | 14.2 nM |
| Cc1ccc(NC(=O)c2cccc(C(F)(F)F)c2)cc1C(=O)Nc1cnc(Nc2ccc(C(=O)NCCN3CCCC3)nc2)nc1 | 21 nM |
| O=C(NCCN1CCCC1)c1ccc(Nc2ncc(NC(=O)c3cc(NC(=O)c4cccc(C(F)(F)F)c4)ccc3Cl)cn2)cc1 | 2.2 nM |
| CN1CCN(C(=O)c2ccc(Nc3ncc(NC(=O)c4cc(NC(=O)c5cccc(C(F)(F)F)c5)ccc4Cl)cn3)cc2)CC1 | 2.3 nM |
| O=C(Nc1ccc(Cl)c(C(=O)Nc2cnc(Nc3ccc(OCCN4CCCC4)cc3)nc2)c1)c1cccc(F)c1 | 40.7 nM |
| Cc1ccc(NC(=O)Nc2cccc(C(F)(F)F)c2)cc1C(=O)Nc1cnc(Nc2cccc(OCCN3CCCC3)c2)nc1 | 73.1 nM |
| Cc1ccc(NC(=O)Nc2ccccc2)cc1C(=O)Nc1cnc(Nc2ccc(OCCN3CCCC3)cc2)nc1 | 168 nM |
| O=C(Nc1ccc(Cl)c(C(=O)Nc2cnc(Nc3ccc(S(=O)(=O)C4CCNCC4)cc3)nc2)c1)c1cc(C(F)(F)F)ccc1F | 22.3 nM |
| O=C(Nc1ccc(Cl)c(C(=O)Nc2cnc(Nc3ccc(S(=O)(=O)C4CCNCC4)cc3)nc2)c1)c1cccc(Cl)c1 | 11.6 nM |
| Cc1ccc(NC(=O)Nc2cccc(C(F)(F)F)c2)cc1C(=O)Nc1cnc(Nc2cccnc2)nc1 | 27.8 nM |
| O=C(Nc1ccc(Cl)c(CNc2cnc(Nc3cccnc3)nc2)c1)c1cccc(C(F)(F)F)c1 | 2.1 nM |
| O=C(Nc1ccc(Cl)c(C(=O)Nc2cnc(Nc3cccc(S(=O)(=O)NCCN4CCCC4)c3)nc2)c1)c1cccc(C(F)(F)F)c1 | 2.1 nM |
| O=C(Nc1ccc(Cl)c(C(=O)Nc2cnc(Nc3ccc(OCCN4CCCC4)cc3)nc2)c1)c1ccc(C(F)(F)F)cc1 | 12 nM |
| O=C(Nc1cccc(C(F)(F)F)c1)Nc1ccc(Cl)c(C(=O)Nc2cnc(Nc3cccnc3)nc2)c1 | 20.1 nM |
| O=C(Nc1ccc(Cl)c(NC(=O)c2cnc(Nc3ccc(OCCN4CCCC4)cc3)nc2)c1)c1cccc(C(F)(F)F)c1 | 43 nM |
| O=C(Nc1ccc(Cl)c(NC(=O)c2cnc(Nc3cccc(OCCN4CCCC4)c3)nc2)c1)c1cccc(C(F)(F)F)c1 | 149 nM |
| O=C(Nc1ccc(Cl)c(NC(=O)c2cnc(Nc3cccnc3)nc2)c1)c1cccc(C(F)(F)F)c1 | 178 nM |
| COc1ccc(Nc2ncc(NC(=O)c3cc(NC(=O)c4cccc(C(F)(F)F)c4)ccc3Cl)cn2)cc1 | 23 nM |
| O=C(Nc1ccc(Cl)c(C(=O)Nc2cnc(Nc3ccc(O)cc3)nc2)c1)c1cccc(C(F)(F)F)c1 | 15 nM |
| O=C(Nc1ccc(Cl)c(C(=O)Nc2cnc(Nc3ccc(OC(=O)c4ccccc4)cc3)nc2)c1)c1cccc(C(F)(F)F)c1 | 361 nM |
| Cc1cccc(NC(=O)c2cccc(C(=O)Nc3cnc(Nc4ccc(S(=O)(=O)CCCN5CCCC5)cc4)nc3)c2)c1 | 164 nM |
| O=C(Nc1ccc(Cl)c(C(=O)Nc2cnc(Nc3ccc(S(=O)(=O)CCCN4CCCC4)cc3)nc2)c1)c1cccc(C(F)(F)F)c1 [drawing 161] | 2.9 nM |
| O=C(Nc1ccc(Cl)c(C(=O)Nc2cnc(Nc3cccc(OCCN4CCCC4)c3)nc2)c1)c1cccc(C(F)(F)F)c1 [drawing 162] | 2.7 nM |
| Cc1ccc(NC(=O)c2cccc(C(F)(F)F)c2)cc1C(=O)Nc1cnc(Nc2cccc(OCCN3CCCC3)c2)nc1 [drawing 163] | 13.8 nM |
| O=C(Nc1ccc(Cl)c(C(=O)Nc2cnc(Nc3ccc(S(=O)(=O)C4CCNCC4)cc3)nc2)c1)c1cccc(C(F)(F)F)c1 [drawing 169] | 4.5 nM |
| Cc1ccc(NC(=O)c2cccc(C(F)(F)F)c2)cc1C(=O)Nc1cnc(Nc2ccc(OCCN3CCCC3)cc2)nc1 [drawing 170] | 3.2 nM |

target: T2, human c-Src (Homo sapiens, UniProt P12931); experiment: Src kinase inhibition (KinaseGlo residual ATP); assay type: biochemical; conditions: ATP 3 μM, 90 min room temperature
T2 construct: purchased Panvera/Invitrogen
Method: as §1
Recombinant human c-Src or Yes, or Fyn, or Lck (28 ng/well, Panvera/Invitrogen, Madison Wis.), ATP (3 μM), a tyrosine kinase substrate (PTK2, 250 μM, Promega Corp., Madison Wis.), and test agents (at concentrations ranging from about 1 nM/l to about 100 μM/l), in the presence of Src kinase reaction buffer (Upstate USA, Lake Placid N.Y.). After reacting for about 90 minutes at room temperature, residual ATP was determined using a luciferase-based assay (KinaseGlo, Promega Corp.) as a measure of kinase activity. Data from four wells were then averaged and used to determine IC50 values for the test compounds (Prism software package, GraphPad Software, San Diego Calif.).

T2 sequence (P12931 whole entry): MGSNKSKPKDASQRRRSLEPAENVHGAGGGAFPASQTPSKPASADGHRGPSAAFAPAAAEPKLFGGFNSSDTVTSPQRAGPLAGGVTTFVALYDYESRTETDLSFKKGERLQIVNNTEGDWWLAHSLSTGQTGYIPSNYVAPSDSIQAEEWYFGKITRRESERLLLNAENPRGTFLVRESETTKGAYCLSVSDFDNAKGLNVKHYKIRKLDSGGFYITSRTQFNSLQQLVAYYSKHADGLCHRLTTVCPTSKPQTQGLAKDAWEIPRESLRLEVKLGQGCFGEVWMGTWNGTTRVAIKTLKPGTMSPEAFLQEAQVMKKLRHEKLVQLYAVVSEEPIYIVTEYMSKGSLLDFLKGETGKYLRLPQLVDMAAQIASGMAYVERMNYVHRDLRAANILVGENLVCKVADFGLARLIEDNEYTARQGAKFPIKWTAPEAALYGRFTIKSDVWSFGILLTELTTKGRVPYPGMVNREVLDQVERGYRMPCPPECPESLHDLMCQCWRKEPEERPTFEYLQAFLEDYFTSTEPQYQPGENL

| Structure (SMILES) | IC50 |
| --- | --- |
| O=C(Nc1ccc(Cl)c(C(=O)Nc2cnc(Nc3ccc(C(=O)N4CCN(CCO)CC4)nc3)nc2)c1)c1cccc(C(F)(F)F)c1 | 1.9 nM |
| Cc1ccc(NC(=O)c2cccc(C(F)(F)F)c2)cc1C(=O)Nc1cnc(Nc2ccc(S(=O)(=O)CCCN3CCCC3)cc2)nc1 | 3.8 nM |
| O=C(Nc1ccc(Cl)c(C(=O)Nc2cnc(Nc3ccc(C(=O)NCCN4CCCC4)nc3)nc2)c1)c1cccc(C(F)(F)F)c1 | 5 nM |
| Cc1ccc(NC(=O)c2cccc(C(F)(F)F)c2)cc1C(=O)Nc1cnc(Nc2ccc(C(=O)NCCN3CCCC3)nc2)nc1 | 4.1 nM |
| O=C(NCCN1CCCC1)c1ccc(Nc2ncc(NC(=O)c3cc(NC(=O)c4cccc(C(F)(F)F)c4)ccc3Cl)cn2)cc1 | 1.4 nM |
| Cc1ccc(NC(=O)c2c(F)cc(F)cc2F)cc1C(=O)Nc1cnc(Nc2cccc(CCCN3CCCC3)c2)nc1 | 102 nM |
| Cc1ccc(NC(=O)c2cccc(C(F)(F)F)c2)cc1C(=O)Nc1cnc(Nc2ccc(C(=O)NCCN3CCCC3)cc2)nc1 | 1.7 nM |
| CN1CCN(C(=O)c2ccc(Nc3ncc(NC(=O)c4cc(NC(=O)c5cccc(C(F)(F)F)c5)ccc4Cl)cn3)cc2)CC1 | 1.7 nM |
| CN1CCN(C(=O)c2ccc(Nc3ncc(NC(=O)c4cc(NC(=O)c5cccnc5)ccc4Cl)cn3)cc2)CC1 | 93.2 nM |
| Cc1ccc(NC(=O)c2cccc(C(F)(F)F)c2)cc1Nc1cnc(Nc2cccc(CCCN3CCCC3)c2)nc1 | 755 nM |
| O=C(Nc1ccc(Cl)c(C(=O)Nc2cnc(Nc3ccc(OCCN4CCCC4)cc3)nc2)c1)c1cccc(F)c1 | 3 nM |
| Cc1cccc(C(=O)Nc2ccc(Cl)c(C(=O)Nc3cnc(Nc4ccc(S(=O)(=O)CCCN5CCCC5)cc4)nc3)c2)c1 | 11.6 nM |
| Cc1ccc(NC(=O)Nc2cccc(C(F)(F)F)c2)cc1C(=O)Nc1cnc(Nc2cccc(OCCN3CCCC3)c2)nc1 | 1.8 nM |
| Cc1ccc(NC(=O)c2ccccc2)cc1C(=O)Nc1cnc(Nc2cccc(OCCN3CCCC3)c2)nc1 | 16.6 nM |
| O=C(Nc1ccc(Cl)c(C(=O)Nc2cnc(Nc3ccc(S(=O)(=O)C4CCNCC4)cc3)nc2)c1)c1cccs1 | 38.2 nM |
| N#Cc1ccc(C(=O)Nc2ccc(Cl)c(C(=O)Nc3cnc(Nc4ccc(S(=O)(=O)C5CCNCC5)cc4)nc3)c2)cc1 | 32 nM |
| COc1ccc(C(=O)Nc2ccc(Cl)c(C(=O)Nc3cnc(Nc4ccc(S(=O)(=O)C5CCNCC5)cc4)nc3)c2)cc1 | 17.5 nM |
| O=C(Nc1cnc(Nc2cccnc2)nc1)c1cc(Nc2ccc3ccccc3n2)ccc1Cl | 454 nM |
| Cc1ccc(NC(=O)C(C)(C)C)cc1C(=O)Nc1cnc(Nc2ccc(OCCN3CCCC3)cc2)nc1 | > 10000 nM |
| Cc1ccc(NC(=O)Nc2ccccc2)cc1C(=O)Nc1cnc(Nc2ccc(OCCN3CCCC3)cc2)nc1 | 4.5 nM |
| O=C(Nc1ccc(Cl)c(C(=O)Nc2cnc(Nc3ccc(S(=O)(=O)C4CCNCC4)cc3)nc2)c1)c1cc(C(F)(F)F)ccc1F | 4.2 nM |
| O=C(Nc1ccc(Cl)c(C(=O)Nc2cnc(Nc3ccc(S(=O)(=O)C4CCNCC4)cc3)nc2)c1)c1cccc(Cl)c1 | 2.5 nM |
| Cc1ccc(NC(=O)Nc2cccc(C(F)(F)F)c2)cc1C(=O)Nc1cnc(Nc2cccnc2)nc1 | 7.9 nM |
| O=C(Nc1cnc(Nc2ccc(S(=O)(=O)CCCN3CCCC3)cc2)nc1)c1cccc(NC(=O)c2cccc(C(F)(F)F)c2)c1 | 67.4 nM |
| O=C(Nc1cnc(Nc2ccc(OCCN3CCCC3)cc2)nc1)c1cc(NC(=O)C2CCCCC2)ccc1Cl | 19.4 nM |
| Cc1ccc(NC(=O)Cc2cccc(C(F)(F)F)c2)cc1C(=O)Nc1cnc(Nc2cccnc2)nc1 | 56.9 nM |
| O=C(Nc1cnc(Nc2cccc(OCCN3CCCC3)c2)nc1)c1cc(Nc2ccccn2)ccc1Cl | 169 nM |

| Structure (SMILES) | IC50 |
| --- | --- |
| O=C(Nc1ccc(C(=O)Nc2cnc(Nc3cccc(OCCN4CCCC4)c3)nc2)c(Cl)c1)c1cccc(C(F)(F)F)c1 | 65.7 nM |
| CCOC(=O)c1cccc(Nc2ncc(NC(=O)c3cc(NC(=O)c4cccc(C(F)(F)F)c4)ccc3Cl)cn2)c1 | 13.4 nM |
| Nc1ncc(NC(=O)c2cc(NC(=O)c3cccc(C(F)(F)F)c3)ccc2Cl)cn1 | 72 nM |
| O=C(Nc1ccc(Cl)c(CNc2cnc(Nc3cccnc3)nc2)c1)c1cccc(C(F)(F)F)c1 | 10.2 nM |
| CC(=O)Nc1ccc(Cl)c(C(=O)Nc2cnc(Nc3ccc(S(=O)(=O)C4CCNCC4)cc3)nc2)c1 | 2600 nM |
| O=C(Nc1cnc(Nc2ccc(CCCN3CCCC3)cc2)nc1)c1cc(Nc2ccc3ccccc3n2)ccc1Cl | 407 nM |
| O=C(Nc1ccc(Cl)c(C(=O)Nc2cnc(NCCN3CCCC3)nc2)c1)c1cccc(C(F)(F)F)c1 | > 10000 nM |
| Cc1cc(C(=O)Nc2ccc(Cl)c(C(=O)Nc3cnc(Nc4ccc(OCCN5CCCC5)cc4)nc3)c2)no1 | 77.5 nM |
| O=C(Nc1ccc(Cl)c(C(=O)Nc2cnc(Nc3cccc(S(=O)(=O)NCCN4CCCC4)c3)nc2)c1)c1cccc(C(F)(F)F)c1 | 4 nM |
| O=C(Nc1ccc(Cl)c(C(=O)Nc2cnc(Nc3ccc(OCCN4CCCC4)cc3)nc2)c1)c1ccc(C(F)(F)F)cc1 | 3.3 nM |
| O=C(Nc1cccc(C(F)(F)F)c1)Nc1ccc(Cl)c(C(=O)Nc2cnc(Nc3cccnc3)nc2)c1 | 14.2 nM |
| Cc1ccc(S(=O)(=O)NCc2ccccc2)cc1Nc1cnc(Nc2ccc(S(=O)(=O)NCCN3CCCC3)cc2)nc1 | 1300 nM |
| Cc1ccc(S(N)(=O)=O)cc1Nc1cnc(Nc2ccc(S(=O)(=O)NCCN3CCCC3)cc2)nc1 | ~10000 nM |
| O=C(Nc1ccc(Cl)c(NC(=O)c2cnc(Nc3ccc(OCCN4CCCC4)cc3)nc2)c1)c1cccc(C(F)(F)F)c1 | 50 nM |
| O=C(Nc1ccc(Cl)c(NC(=O)c2cnc(Nc3cccc(OCCN4CCCC4)c3)nc2)c1)c1cccc(C(F)(F)F)c1 | 67 nM |
| O=C(Nc1ccc(Cl)c(NC(=O)c2cnc(Nc3cccnc3)nc2)c1)c1cccc(C(F)(F)F)c1 | 86 nM |
| COc1ccc(Nc2ncc(NC(=O)c3cc(NC(=O)c4cccc(C(F)(F)F)c4)ccc3Cl)cn2)cc1 | 12 nM |
| O=C(Nc1ccc(Cl)c(C(=O)Nc2cnc(Nc3ccc(O)cc3)nc2)c1)c1cccc(C(F)(F)F)c1 | 19 nM |
| O=C(Nc1ccc(Cl)c(C(=O)Nc2cnc(Nc3ccc(OC(=O)c4ccccc4)cc3)nc2)c1)c1cccc(C(F)(F)F)c1 | 647 nM |
| O=C(Nc1ccc(Cl)c(C(=O)Nc2cnc(Nc3cccc(OCCN4CCCC4)c3)nc2)c1)c1cccc(C(F)(F)F)c1 [drawing 162] | 2.1 nM |
| Cc1ccc(NC(=O)c2cccc(C(F)(F)F)c2)cc1C(=O)Nc1cnc(Nc2cccc(OCCN3CCCC3)c2)nc1 [drawing 163] | 3.9 nM |
| O=C(Nc1cnc(Nc2cccc(OCCN3CCCC3)c2)nc1)c1cc(NC(=O)C(F)(F)F)ccc1Cl [drawing 168] | 63.4 nM |
| O=C(Nc1ccc(Cl)c(C(=O)Nc2cnc(Nc3ccc(S(=O)(=O)C4CCNCC4)cc3)nc2)c1)c1cccc(C(F)(F)F)c1 [drawing 169] | 1.8 nM |
| Cc1ccc(NC(=O)c2cccc(C(F)(F)F)c2)cc1C(=O)Nc1cnc(Nc2ccc(OCCN3CCCC3)cc2)nc1 [drawing 170] | 3.3 nM |
| O=C(Nc1ccc(Cl)c(C(=O)Nc2cnc(Nc3ccc(CCCN4CCCC4)cc3)nc2)c1)c1cccc(C(F)(F)F)c1 [drawing 172] | 2.8 nM |
| Cc1ccc(NC(=O)C(F)(F)F)cc1C(=O)Nc1cnc(Nc2cccc(OCCN3CCCC3)c2)nc1 [drawing 173] | 50.6 nM |
| O=C(Nc1ccc(Cl)c(C(=O)Nc2cnc(Nc3ccc(CCCN4CCCC4)cc3)nc2)c1)c1cccc(C(F)(F)F)c1 [drawing 180] | 2.6 nM |
